Assay [1] has as its target full-length human RORγt (Homo sapiens (Human), UniProt P51449). Briefly: RORγt (full-length human) reporter assay, conditions A or B, HEK293T cells. Format: cell-based. The settings on record: for inhibition at […] / inhibition at 1 µM / inhibition at 0.67 µM / inhibition at 3 µM / inhibition at 2 µM: HEK-293T, read-out: RORγt (FL) Reporter Assay A or B, % inhibition; for IC50: RORγt (FL) Reporter Assay A or B, IC50, HEK293T cells; for inhibition at 1 µM: 1 μM compound concentration (footnote ***); for inhibition at 0.67 µM: 0.67 μM compound concentration (footnote ****); for inhibition at 3 µM: 3 μM compound concentration (footnote *); for inhibition at 2 µM: 2 μM compound concentration. How it is done: RORγt (Full-Length Human) Reporter Assay:
(§1) HEK293T cells were plated at 35,000 per well in 96-well plate in medium of DMEM with 10% FBS. […] After overnight (16 to 20 hours) incubation, media were removed and cells were lysed with 50 L Glo Lysis Buffer (Promega) for 10-15 minutes followed by 10 minute incubation with 50 μL Dual Glo reagent (Promega) at room temperature. Firefly luciferase luminescence was measured using a BMG Pherastar plate reader. To each well, 50 μL Stop and Glo reagent was added and incubated for 10 minutes at room temperature. Renilla luminescence was measured using a BMG Pherastar plate reader. To calculate the effect of compounds on RORγt activity, firefly values were normalized against values of DMSO only and values of reference compound at saturating concentration, then further normalized against Renilla signals. IC50s were generated by plotting final Renilla normalized data against compound concentration and percent inhibition was calculated against DMSO control.
as §1, with “at 8750 cells” for “at 35,000”, “in 384-well” for “in 96-well”, “with 20” for “with 50”, “well, 20” for “well, 50”

For assay [2], the target named is human RORγt ligand binding domain (RORγt LBD) (Homo sapiens (Human), UniProt P51449). The assay is described as follows: RORγt ThermoFluor® assay (thermal shift binding). How it is done: This approach is applicable to a wide variety of systems, and rigorous in theoretical interpretation through quantitation of equilibrium binding constants (KD).
The shift in the melting point described as a ΔTm is proportional to the concentration and affinity of the ligand.
RORγt ThermoFluor® Assay Construct
Reference wells contained RORγt without compounds, and the assay conditions were as follows: • 0.065 mg/mL RORγt • 60 μM 1,8-ANS • 100 mM Hepes, pH 7.0 • 10 mM NaCl • 2.5 mM GSH • 0.002% Tween-20
Project compounds were arranged in a pre-dosed mother plate (Greiner Bio-one) wherein compounds are serially diluted in 100% DMSO by 1:2 from a high concentration of 10 mM over 12 columns within a series (column 12 is a reference well containing DMSO, no compound). The compounds were robotically dispensed directly into assay plates (1×=46 nL) using a Hummingbird capillary liquid handling instrument (Digilab). Following compound dispense, protein and dye in buffer was added to achieve the final assay volume of 3 μL, followed by 1 μL of silicone oil.

Where [3] appears, read: 0.22 μM compound concentration (footnote *******).
[4] abbreviates: read-out: ThermoFluor® Assay, Kd.

Like-named read-outs stand apart in the source and are kept apart here.

full-length human RORγt, sequence (P51449 other isoform, or with tags, fused parts or gaps): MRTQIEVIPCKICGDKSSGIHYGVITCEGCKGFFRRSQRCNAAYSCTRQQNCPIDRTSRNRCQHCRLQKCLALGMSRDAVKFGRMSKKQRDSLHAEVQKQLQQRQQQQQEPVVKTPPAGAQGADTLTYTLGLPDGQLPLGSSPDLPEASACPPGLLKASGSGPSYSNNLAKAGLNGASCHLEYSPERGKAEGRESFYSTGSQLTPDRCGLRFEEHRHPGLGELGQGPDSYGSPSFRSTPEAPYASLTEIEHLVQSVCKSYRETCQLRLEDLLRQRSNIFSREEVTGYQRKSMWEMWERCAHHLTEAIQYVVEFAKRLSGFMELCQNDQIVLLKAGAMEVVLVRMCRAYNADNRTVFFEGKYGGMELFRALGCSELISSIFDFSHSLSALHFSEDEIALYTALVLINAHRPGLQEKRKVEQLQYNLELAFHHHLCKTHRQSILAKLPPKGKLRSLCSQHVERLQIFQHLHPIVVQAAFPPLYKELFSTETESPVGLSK
human RORγt ligand binding domain (RORγt LBD), sequence (P51449 other isoform, or with tags, fused parts or gaps): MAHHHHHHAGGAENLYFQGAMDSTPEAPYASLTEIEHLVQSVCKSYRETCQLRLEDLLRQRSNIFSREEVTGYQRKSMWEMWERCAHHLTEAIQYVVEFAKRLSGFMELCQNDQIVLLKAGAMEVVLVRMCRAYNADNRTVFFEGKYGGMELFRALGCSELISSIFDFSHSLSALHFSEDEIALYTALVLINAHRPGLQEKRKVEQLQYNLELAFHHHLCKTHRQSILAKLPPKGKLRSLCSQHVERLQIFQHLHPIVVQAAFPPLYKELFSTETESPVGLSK

For `CCn1nc(C(=O)NC[C@]2(C#N)CC[C@@H](S(C)(=O)=O)CC2)c(Cl)c1-c1ccc(CC(C)(C)C(F)(F)F)cc1` [Example 169, 4-Chloro-N-(((1s*,4s*)-1-cyano-4-(methylsulfonyl)cyclohexyl)methyl)-1-ethyl-5-(4-(3,3,3-trifluoro-2,2-dimethylpropyl)phenyl)-1H-pyrazole-3-carboxamide], in assay [1] (setting [3]), the inhibition (commonly the relative decrease from the control value, in per cent) at […] came to 85%. The IC50 (as a rule, the concentration at which inhibition is half-maximal) in assay [1] came out at 41 nM. Besides, the Kd (as a rule, the free concentration of one partner at which half of the binding sites on the other are occupied at equilibrium, for simple one-to-one binding) in assay [2] (setting [4]) worked out at 3.4 nM.
For `CCn1nc(C(=O)NC[C@H]2CC[C@H](S(N)(=O)=O)CC2)c(Cl)c1-c1ccc(CC(C)(C)C(F)(F)F)cc1OC(F)F` [Example 51, 4-Chloro-5-(2-(difluoromethoxy)-4-(3,3,3-trifluoro-2,2-dimethylpropyl)phenyl)-1-ethyl-N-(((1r,4r)-4-sulfamoylcyclohexyl)methyl)-1H-pyrazole-3-carboxamide], in assay [1], the inhibition at 1 µM came to 113% and the IC50 was found to be 4.6 nM. In addition, the equilibrium dissociation constant (Kd) in assay [2] (ThermoFluor® Assay, Kd) was 0.25 nM.
In the case of `CCn1nc(C(=O)NC[C@]2(O)CC[C@@H](S(C)(=O)=O)CC2)c(Cl)c1-c1ccc(CC(C)(C)C(F)(F)F)cc1F` [Example 178, 4-Chloro-1-ethyl-5-(2-fluoro-4-(3,3,3-trifluoro-2,2-dimethylpropyl)phenyl)-N-(((1s,4s)-1-hydroxy-4-(methylsulfonyl)cyclohexyl)methyl)-1H-pyrazole-3-carboxamide], in assay [1], the inhibition at 0.67 µM is 89% and inhibition was half-maximal at 30 nM (IC50). The Kd in assay [2] (setting [4]) was 2.4 nM.
With `CCn1nc(C(=O)NC[C@]2(O)CC[C@@H](S(C)(=O)=O)CC2)c(Cl)c1-c1ccc(CC(C)(C)C(F)(F)F)cc1C(F)(F)F` [Example 163, 4-Chloro-1-ethyl-N-(((1s,4s)-1-hydroxy-4-(methylsulfonyl)cyclohexyl)methyl)-5-(4-(3,3,3-trifluoro-2,2-dimethylpropyl)-2-(trifluoromethyl)phenyl)-1H-pyrazole-3-carboxamide], the inhibition at […] in assay [1] (setting [3]) came out at 78%. Further, the half-inhibitory concentration (IC50) in assay [1] turned out to be 3.3 nM. The Kd in assay [2] (setting [4]) is 0.63 nM.
As to `CCn1nc(C(=O)NC[C@]2(O)CC[C@@H](S(C)(=O)=O)CC2)c(Cl)c1-c1ccc(C2(O)CCC(C(F)(F)F)CC2)cc1OC(F)F` (single isomer, unassigned) [Example 113, 4-Chloro-5-(2-(difluoromethoxy)-4-((1r*,4r*)-1-hydroxy-4-(trifluoromethyl)cyclohexyl)phenyl)-1-ethyl-N-(((1s,4s)-1-hydroxy-4-(methylsulfonyl)cyclohexyl)methyl)-1H-pyrazole-3-carboxamide], in assay [1], the inhibition at 3 µM came out at 88% and the IC50 stood at 61 nM. Besides, in assay [2] (ThermoFluor® Assay, Kd), the dissociation constant (Kd) is 120 nM.
Consider `CCn1nc(C(=O)NC[C@H]2CC[C@H](S(C)(=O)=O)CC2)c(Cl)c1-c1ccc(CC(C)(C)CC(F)(F)F)cc1OC(F)F` [Example 89, 4-Chloro-5-(2-(difluoromethoxy)-4-(4,4,4-trifluoro-2,2-dimethylbutyl)phenyl)-1-ethyl-N-(((1r,4r)-4-(methylsulfonyl)cyclohexyl)methyl)-1H-pyrazole-3-carboxamide], for which the inhibition at […] in assay [1] (0.33 μM compound concentration (footnote *****)) was 98%. In addition, the IC50 in assay [1] is 5.4 nM. Besides, in assay [2] (setting [4]), the Kd is 0.24 nM.
Take `CCn1nc(C(=O)NC[C@]2(CO)CC[C@@H](S(C)(=O)=O)CC2)c(Cl)c1-c1ccc(CC(C)(C)C(F)(F)F)cc1OC(F)F` [Example 91, 4-Chloro-5-(2-(difluoromethoxy)-4-(3,3,3-trifluoro-2,2-dimethylpropyl)phenyl)-1-ethyl-N-(((1s*,4s*)-1-(hydroxymethyl)-4-(methylsulfonyl)cyclohexyl)methyl)-1H-pyrazole-3-carboxamide]: in assay [1], the inhibition at 1 µM was 99% and the IC50 came to 3.7 nM. Moreover, in assay [2] (setting [4]), the equilibrium dissociation constant (Kd) worked out at 0.24 nM.
As for `CCn1nc(C(=O)NC[C@H]2CC[C@H](S(C)(=O)=O)CC2)c(Cl)c1-c1ccc(CCC(C)C)cc1OC` [Example 74, 4-Chloro-1-ethyl-5-(4-isopentyl-2-methoxyphenyl)-N-(((1r,4r)-4-(methylsulfonyl)cyclohexyl)methyl)-1H-pyrazole-3-carboxamide], in assay [1], the inhibition at 0.67 µM was found to be 50% and the IC50 amounted to 38 nM. Further, in assay [2] (setting [4]), the Kd turned out to be 0.33 nM.
As for `CC(C)(O)Cn1nc(C(=O)NC[C@H]2CC[C@H](S(C)(=O)=O)CC2)c(Cl)c1-c1ccc(CC(C)(C)C(F)(F)F)cc1OC(F)F` [Example 145, 4-Chloro-5-(2-(difluoromethoxy)-4-(3,3,3-trifluoro-2,2-dimethylpropyl)phenyl)-1-(2-hydroxy-2-methylpropyl)-N-(((1r,4r)-4-(methylsulfonyl)cyclohexyl)methyl)-1H-pyrazole-3-carboxamide], in assay [1], the inhibition at 2 µM was determined as 105% and the IC50 came out at 13 nM. Besides, the Kd in assay [2] (setting [4]) amounted to 2.5 nM.
The corresponding values for `CCn1nc(C(=O)NC[C@]2(O)CC[C@@H](S(C)(=O)=O)CC2)c(Cl)c1-c1ccc(CCCC(F)(F)F)cc1OC(F)F` [Example 77, 4-Chloro-5-(2-(difluoromethoxy)-4-(4,4,4-trifluorobutyl)phenyl)-1-ethyl-N-(((1s,4s)-1-hydroxy-4-(methylsulfonyl)cyclohexyl)methyl)-1H-pyrazole-3-carboxamide] are 96%, 5.6 nM and 1.2 nM.
Taken in the same sequence, the figures for `CCn1nc(C(=O)NC[C@H]2CC[C@H](S(C)(=O)=O)CC2)c(C#N)c1-c1ccc(CC(C)C(F)(F)F)cc1OC` (stereo partly drawn) [Example 123, 4-Cyano-1-ethyl-5-(2-methoxy-4-(3,3,3-trifluoro-2-methylpropyl)phenyl)-N-(((1r,4r)-4-(methylsulfonyl)cyclohexyl)methyl)-1H-pyrazole-3-carboxamide] were 85%, 35 nM and 9.6 nM.
In the case of `CCn1nc(C(=O)NC[C@]2(O)CC[C@H](S(C)(=O)=O)C[C@H]2O)c(Cl)c1-c1ccc(CC(C)(C)C(F)(F)F)cc1OC(F)F` (single isomer, unassigned) [Example 48, 4-Chloro-5-(2-(difluoromethoxy)-4-(3,3,3-trifluoro-2,2-dimethylpropyl)phenyl)-N-(((1R*,2R*4S*)-1,2-dihydroxy-4-(methylsulfonyl)cyclohexyl)methyl)-1-ethyl-1H-pyrazole-3-carboxamide], in assay [1], the inhibition at 2 µM was found to be 95% and the midpoint of inhibition, the IC50, lay at 61 nM. Also, the Kd in assay [2] (ThermoFluor® Assay, Kd) was determined as 31 nM.
On to `CCn1nc(C(=O)NC[C@H]2CC[C@H](S(C)(=O)=O)CC2)c(Cl)c1-c1ccc(C2(O)CCC(C(F)(F)F)CC2)cc1OC(F)F` (single isomer, unassigned) [Example 115, 4-Chloro-5-(2-(difluoromethoxy)-4-((1r*,4r*)-1-hydroxy-4-(trifluoromethyl)cyclohexyl)phenyl)-1-ethyl-N-(((1r,4r)-4-(methylsulfonyl)cyclohexyl)methyl)-1H-pyrazole-3-carboxamide], for which, in assay [1], the inhibition at 3 µM is 89% and the half-inhibitory concentration (IC50) stood at 16 nM. Also, in assay [2] (ThermoFluor® Assay, Kd), the dissociation constant Kd was determined as 32 nM.
Regarding `CCn1nc(C(=O)NC[C@H]2CC[C@H](S(C)(=O)=O)CO2)c(Cl)c1-c1ccc(CC(C)(C)C(F)(F)F)cc1OC(F)F` (single isomer, unassigned) [Example 15, 4-Chloro-5-(2-(difluoromethoxy)-4-(3,3,3-trifluoro-2,2-dimethylpropyl)phenyl)-1-ethyl-N-(((2R*,5S)-5-(methylsulfonyl)tetrahydro-2H-pyran-2-yl)methyl)-1H-pyrazole-3-carboxamide], in assay [1], the inhibition at 0.67 µM came to 113% and the midpoint of inhibition, the IC50, lay at 5.4 nM. In addition, the dissociation constant (Kd) in assay [2] (ThermoFluor® Assay, Kd) worked out at 0.13 nM.
